Patent US20240368209A1, “GEMCITABINE ANTICANCER DERIVATIVE AND ANTICANCER PHARMACEUTICAL USE” (ASCENTAWITS PHARMACEUTICALS, LTD., priority 2021, published 2024)
Like-named read-outs stand apart in the source and are kept apart here.

How the values were obtained:
[1] = Plasma stability in dog plasma; assay type: in vitro ADME
Procedure: The final concentration of organic solvents was 0.5%. The test was conducted in duplicate. • C.
Samples were analyzed with LC-MS/MS. All calculations were conducted using Microsoft Excel.

[2] = Metabolic stability in human liver microsomes; assay type: in vitro ADME
Procedure: (§1) Main solutions were prepared according to Table 9 below:
(§2) (II) Two Separate Experiments were Performed • a) With cofactor (NADPH): 25 μL of 10 mM NADPH was added to the culture broth. The final concentration of liver microsomes was 0.5 mg/mL, and the final concentration of NADPH was 1 mM. • b) Without cofactor (NADPH): 25 μL of 100 mM phosphate buffer was added. The final concentration of liver microsomes was 0.5 mg/mL. The mixture was preheated at 37° C. for 10 minutes. (III) 25 μL of […] control compound or test compound solution was added to start the reaction. […] The final concentrations of the test compound and control compound were both 1 μM. The culture broth was cultured in water at 37° C. (IV) Aliquots of 30 μL were collected from the reaction solution at 0.5, 5, 15, 30, and 60 minutes, respectively. 5 volumes of cold acetonitrile and IS (internal standard, containing 100 nM of alprazolam, 200 nM of caffeine, and 100 nM of tolylbutanamide) were added to stop the reaction. […] 100 μL of supernatant was taken and mixed with 100 μL of ultrapure water, equally divided and analyzed with LC-MS/MS.
(§3) All calculations were conducted using Microsoft Excel. The peak area was determined from the extracted ion chromatogram.
(§4) [formula] [formula] [formula] • wherein, QH is the hepatic blood flow (mL/min/kg) in Table 10, and fub is the fraction of drug unbound in plasma, and assumed as 1.

[3] = test system: H460 non-small cell lung cancer human tumor cell line; assay: In vitro human tumor cell line cytotoxicity (proliferation) assay on H460, CTG, with or without AST-3021; assay type: cell-based; details: for IC50: Homo sapiens
Procedure: In vitro human tumor cell line cytotoxicity assay was used.
In vitro proliferation data on the H460 non-small cell lung cancer human tumor cell line (cell line which highly expresses AKR1C3) is reported below in the compound table.
IC50 values were obtained with the following steps:
Specifically, exponentially growing cells were seeded at a density of 2×10^3 cells/100 μL/well in a 96-well plate and incubated at 37° C. in 5% CO2, 95% air and 100% relative humidity for 24 hours. The test compound was administered alone: 24 hours after cell plating, the compound acted alone, 99 μL of growth medium per well was added, and 1 μL of the compound prepared at 200× was added, and the plate was shaken gently to ensure even mixing, then placed into an incubator of 37° C., 5% CO2. After further cultivation for 72 hours, the number of live cells was detected using CTG. The CTG detection method was as follows: the cell plate to be tested was placed at room temperature to equilibrate for 30 minutes, and 100 μL of medium per well was discarded. 25 μL of CTG reagent (CellTiter-Glo® kit) per well was added, and the plate was placed in a high-speed shaker to oscillate for 2 minutes, and placed at room temperature in the dark for 30 minutes. The chemiluminescence signal value was read using a multimode microplate reader, with a read time of 1000 ms.
Similarly, in order to further verify that the compounds were activated by human AKR1C3 (aldosterone reductase family 1 member C3), the effect of some of the compounds on the proliferation of H460 cancer cells was tested with pretreatment with a specific AKR1C3 enzyme inhibitor AST-3021 (3 μM). The detailed experimental procedure was as follows: 24 hours after cell plating, 98 μL of growth medium per well was added, and 1 μL of 200×compound AST-3021 was added to each well, and the plate was shaken gently to ensure even mixing, and then placed into an incubator; after 2 hours, 1 μL of the test compound prepared at 200× was added, and the plate was shaken gently to ensure even mixing and then laced into an incubator of 37° C., 5% CO2. The inhibitor used was compound 36, i.e.
in Flanagan et al., Bioorganic and Medicinal Chemistry (2014), page 962-977, and is referred to as AST-3021 in this invention. The values measured in this case are values corresponding to +AST-3021 IC50 (nM) in Table 1.
The value corresponding to +AST-3021 IC50 (nM) divided by the value corresponding to IC50 (nM) is the specific activation ratio. The relative magnitude of the specific activation ratio can be used to evaluate whether this compound is a cytotoxic compound activated by human AKR1C3 (aldosterone reductase family 1 member C3): when the specific activation ratio is less than 1, it is considered that the compound is not activated by human AKR1C3 (aldosterone reductase family 1 member C3); when the specific activation ratio is greater than 1, it is considered that the compound is activated by human AKR1C3 (aldosterone reductase family 1 member C3), and the higher the value, the higher the activation degree and the selectivity of AKR1C3.

[4] = Maximal tolerance dose (MTD) test; assay type: in vivo; details: mice
Procedure: According to the research scheme in Table 14, mice were grouped and administered at the concentrations and dosage levels shown in Table 14. On the 1st to 5th day and the 14th to 19th day, intraperitoneal injection of a solvent control or compound H11 at different dosage levels was performed, with a dose volume of 10 mL/kg. Animals in Groups 1, 3, and 4 were put to death and autopsied on the 22nd day, and animals in Group 2 were put to death and autopsied on the 16th day.
The evaluated parameters included cage-side observation, detailed clinical observation, and post-administration observation (approximately 1-2 hours after dosing), body weight and weight change, food intake, and gross pathology.

[5] = Metabolic stability in dog liver microsomes; assay type: in vitro ADME
Procedure: as §1, §2, §3, §4

## CC(C)NP(=O)(OCc1ccc([N+](=O)[O-])c(Oc2ccc(-c3ccc(F)cc3)c(F)c2)c1)OCC1OC(C2N=CC(N)=NC2=O)C(F)(F)C1O (stereo not drawn) [Compound H11]
[1]
  t1/2 (min): ∞
[1]; 0 min, 5 μM, 37° C.
  Remaining percentage (%): 100.00%
[1]; 37° C., at least 2 hours
  plasma stability (in words): stable and has no significant metabolism
[1]; 15 min
  Remaining percentage (%): 104.14%
[1]; 30 min
  Remaining percentage (%): 103.37%
[1]; 60 min
  Remaining percentage (%): 102.42%
[1]; 120 min
  Remaining percentage (%): 103.04%
[2]
  Hepatic Extraction Ratio (ER): 0.69
  Predicted Hepatic CLH: 14.41 mL/min/kg
  clearance and stability in liver microsomes (in words): medium clearances and certain stability
[2]; NADPH added, 0.5 minutes, 1 μM
  Remaining percentage (%): 100.00%
[2]; NADPH added, 5 minutes
  Remaining percentage (%): 86.00%
[2]; NADPH added, 15 minutes
  Remaining percentage (%): 63.82%
[2]; NADPH added, 30 minutes
  Remaining percentage (%): 43.87%
[2]; NADPH added, 60 minutes
  Remaining percentage (%): 26.14%
[2]; NADPH not added, 0.5 minutes
  Remaining percentage (%): 100.00%
[2]; NADPH not added, 60 minutes
  Remaining percentage (%): 100.86%
[2]; read-out: In vitro half-life t1/2
  half-life at 1 μM: 31 min
[2]; read-out: In vitro intrinsic clearance CLint
  microsomal CLint at 1 μM: 44.7 µL/min/mg
[2]; read-out: Scale-up CLint
  CLint scaled at 1 μM: 46 mL/min/kg
[3]
  specific activation ratio (+AST-3021 IC50/IC50): 92.8
[3]; NCI-H460, compound alone, 72 hours, read-out: IC50
  IC50: 15.9 nM
[3]; NCI-H460, pretreatment with AKR1C3 inhibitor AST-3021 (3 μM), read-out: +AST-3021 IC50
  IC50: 1480 nM
[4]; 80, 160, 320 mg/kg/day i.p.
  Clinical symptoms: No abnormal compound-related clinical manifestation was observed
  Impact on animal weight and food intake: No abnormal compound-related change in body weight or food intake was observed
[4]; 80, 160, 320 mg/kg/day i.p., two rounds of 5 days
  Mortality of animals: all experimental animals survived until the planned autopsy
[4]; i.p.
  dose at which enlargement of the spleen was visible (pathological examination): ≥ 160 mg/kg
  dose group with change to white in the renal capsule (pathological examination): 320 mg/kg
[4]; intraperitoneal injection once a day for 5 consecutive days
  maximal tolerance dose: 320 mg/kg
[5]
  Hepatic Extraction Ratio (ER): 0.68
  Predicted Hepatic CLH: 21.21 mL/min/kg
  clearance and stability in liver microsomes (in words): medium clearances and certain stability
[5]; NADPH added, 0.5 minutes, 1 μM
  Remaining percentage (%): 100.00%
[5]; NADPH added, 5 minutes
  Remaining percentage (%): 90.20%
[5]; NADPH added, 15 minutes
  Remaining percentage (%): 71.99%
[5]; NADPH added, 30 minutes
  Remaining percentage (%): 52.53%
[5]; NADPH added, 60 minutes
  Remaining percentage (%): 32.12%
[5]; NADPH not added, 0.5 minutes
  Remaining percentage (%): 100.00%
[5]; NADPH not added, 60 minutes
  Remaining percentage (%): 92.14%
[5]; dog, read-out: In vitro half-life t1/2
  half-life at 1 μM: 36.3 min
[5]; dog, read-out: In vitro intrinsic clearance CLint
  microsomal CLint at 1 μM: 38.2 µL/min/mg
[5]; read-out: Scale-up CLint
  CLint scaled at 1 μM: 67.2 mL/min/kg
